According to ChEMBL document CHEMBL1138044, “4-amido-2-aryl-1,2,4-triazolo[4,3-a]quinoxalin-1-ones as new potent and selective human A3 adenosine receptor antagonists. synthesis, pharmacological evaluation, and ligand-receptor modeling studies” (J Med Chem, 2006):
pIC50, pKi: −log10 of the molar value.

Assays:
Adenosine receptor A2a [1] = biological target: T1, Adenosine receptor A2a (Homo sapiens, UniProt P29274); assay: Inhibition of [3H]NECA binding to human adenosine A2A receptor at 10 uM
[2] = tested on: Adenosine receptor A2a (Bos taurus); assay: Inhibition of [3H]CGS 21680 binding to adenosine A2A receptor in bovine striatal membranes at 10 uM; details: Striatum, Membrane
[3] = biological target: T2, Adenosine receptor A1 (Homo sapiens) (UniProt P30542); assay: Inhibition of [3H]DPCPX binding to human adenosine A1 receptor at 10 uM
T2 sequence (whole entry): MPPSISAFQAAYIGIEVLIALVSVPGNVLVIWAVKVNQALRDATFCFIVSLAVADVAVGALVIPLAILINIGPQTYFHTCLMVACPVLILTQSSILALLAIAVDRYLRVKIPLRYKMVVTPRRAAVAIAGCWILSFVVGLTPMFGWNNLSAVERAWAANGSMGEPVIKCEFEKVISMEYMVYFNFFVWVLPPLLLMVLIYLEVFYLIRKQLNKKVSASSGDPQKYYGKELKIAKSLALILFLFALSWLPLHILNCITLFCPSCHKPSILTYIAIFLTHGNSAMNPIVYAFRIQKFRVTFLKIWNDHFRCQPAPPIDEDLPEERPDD

Adenosine receptor A1 [4] = biological target: T3, Adenosine receptor A1 (Bos taurus, UniProt P28190); assay: Displacement of [3H]DPCPX from adenosine A1 receptor in bovine brain membranes; type: cell membranes
T3 sequence (P28190 whole entry): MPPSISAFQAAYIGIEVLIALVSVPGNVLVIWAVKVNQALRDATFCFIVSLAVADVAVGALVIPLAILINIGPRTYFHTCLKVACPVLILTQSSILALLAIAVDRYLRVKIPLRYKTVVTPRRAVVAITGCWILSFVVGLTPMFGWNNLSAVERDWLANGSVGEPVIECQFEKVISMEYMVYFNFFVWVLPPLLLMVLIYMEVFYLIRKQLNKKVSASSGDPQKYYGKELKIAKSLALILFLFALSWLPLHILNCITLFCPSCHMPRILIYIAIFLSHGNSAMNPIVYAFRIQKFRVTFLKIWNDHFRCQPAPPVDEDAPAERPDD

Adenosine receptor A3 [5] = biological target: T4, Adenosine receptor A3 (Homo sapiens, UniProt P0DMS8); assay: Displacement of [125I]AB-MECA from human adenosine A3 receptor expressed in CHO cells; type: cell-based
T4 sequence (P0DMS8 whole entry): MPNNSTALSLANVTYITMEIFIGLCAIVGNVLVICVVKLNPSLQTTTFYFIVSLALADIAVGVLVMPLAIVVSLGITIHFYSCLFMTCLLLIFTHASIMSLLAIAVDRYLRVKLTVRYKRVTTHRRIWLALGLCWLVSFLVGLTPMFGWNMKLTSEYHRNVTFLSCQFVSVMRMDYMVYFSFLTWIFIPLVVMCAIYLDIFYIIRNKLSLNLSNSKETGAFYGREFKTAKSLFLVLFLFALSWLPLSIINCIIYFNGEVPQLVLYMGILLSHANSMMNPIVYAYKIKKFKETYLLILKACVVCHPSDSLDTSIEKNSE

[6] = biological target: T5, Adenosine receptor A1 (Bos taurus) (UniProt P28190); assay: Inhibition of [3H]DPCPX binding to adenosine A1 receptor in bovine brain membranes at 10 uM; type: cell membranes
T5 sequence (whole entry): T3 sequence (P28190 whole entry)

[7] = biological target: Adenosine receptor A2a (Bos taurus); assay: Displacement of [3H]CGS 21680 from adenosine A2A receptor in bovine striatal membranes
Adenosine receptor A1 [8] = biological target: T6, Adenosine receptor A1 (Homo sapiens, UniProt P30542); assay: Displacement of [3H]DPCPX from human adenosine A1 receptor expressed in CHO cells; type: cell-based
T6 sequence (P30542 whole entry): T2 sequence (whole entry)

[9] = biological target: T7, Adenosine receptor A3 (Homo sapiens) (UniProt P0DMS8); assay: Inhibition of [125I]AB-MECA binding to human adenosine A3 receptor at 1 uM
T7 sequence (whole entry): T4 sequence (P0DMS8 whole entry)

[10] = biological target: T8, Adenosine receptor A2b (Homo sapiens) (UniProt P29275); assay: Inhibition of NECA-stimulated cAMP level in CHO cells transfected with human adenosine A2B receptor at 1 uM; type: functional, cell-based
T8 sequence (whole entry): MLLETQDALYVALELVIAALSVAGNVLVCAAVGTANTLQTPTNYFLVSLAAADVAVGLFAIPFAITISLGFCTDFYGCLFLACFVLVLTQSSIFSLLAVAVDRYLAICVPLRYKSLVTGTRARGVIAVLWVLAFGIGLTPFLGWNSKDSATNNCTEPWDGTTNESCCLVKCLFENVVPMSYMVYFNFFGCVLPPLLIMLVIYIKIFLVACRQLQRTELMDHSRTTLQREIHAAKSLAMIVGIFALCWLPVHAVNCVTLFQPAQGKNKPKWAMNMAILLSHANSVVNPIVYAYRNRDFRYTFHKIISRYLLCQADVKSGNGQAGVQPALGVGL

Adenosine receptor A2b = biological target: T9, Adenosine receptor A2b (Homo sapiens, UniProt P29275); assay: Inhibition of NECA-stimulated cAMP level in CHO cells transfected with human adenosine A2B receptor; type: functional, cell-based
T9 sequence (P29275 whole entry): T8 sequence (whole entry)

Adenosine receptor A3 [11] = biological target: T4, Adenosine receptor A3; assay: Antagonist activity against Cl-IB-MECA inhibited cAMP level in CHO cells transfected with human A3 receptor; type: functional, cell-based
Adenosine receptor A2a [12] = biological target: T1, Adenosine receptor A2a; assay: Displacement of [3H]NECA from human adenosine A2A receptor expressed in CHO cells; type: cell-based

T1 sequence (P29274 whole entry): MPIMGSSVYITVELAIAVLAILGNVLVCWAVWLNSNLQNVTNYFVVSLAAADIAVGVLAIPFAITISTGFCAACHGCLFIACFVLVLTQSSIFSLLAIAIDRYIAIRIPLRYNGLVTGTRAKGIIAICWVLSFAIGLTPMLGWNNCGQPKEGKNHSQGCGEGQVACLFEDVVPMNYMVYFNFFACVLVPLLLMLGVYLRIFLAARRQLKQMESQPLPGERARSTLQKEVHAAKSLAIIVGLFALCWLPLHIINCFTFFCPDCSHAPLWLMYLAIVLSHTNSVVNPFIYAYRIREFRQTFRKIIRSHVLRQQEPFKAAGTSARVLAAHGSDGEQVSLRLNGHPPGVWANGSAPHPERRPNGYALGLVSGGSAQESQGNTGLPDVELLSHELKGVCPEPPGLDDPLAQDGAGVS

| SMILES | inhibition (Adenosine receptor A2a [1]) [%] | inhibition [2] [%] | inhibition [3] [%] | pKi (Adenosine receptor A1 [4]) | pKi (Adenosine receptor A3 [5]) | other results |
| --- | --- | --- | --- | --- | --- | --- |
| COc1ccc(-n2nc3c(N(C(=O)c4ccccc4)C(=O)c4ccccc4)nc4ccccc4n3c2=O)cc1 | 26 | – | 2 | 6.76 | 8.48 | inhibition [10]: 13%; pIC50 (Adenosine receptor A2b): < 6.00; pIC50 (Adenosine receptor A3 [11]): 7.50 |
| COc1ccc(-n2nc3c(NC(=O)C(c4ccccc4)c4ccccc4)nc4ccccc4n3c2=O)cc1 | – | – | 25 | 8.14 | 7.36 | inhibition [10]: 37%; pIC50 (Adenosine receptor A2b): < 6.00; pIC50 (Adenosine receptor A3 [11]): 6.67 |
| COc1ccc(-n2nc3c(NC(=O)c4ccccc4)nc4c(N)cccc4n3c2=O)cc1 | 24 | – | 45 | 6.41 | 9.00 | inhibition [10]: 17%; pIC50 (Adenosine receptor A2b): < 6.00; pIC50 (Adenosine receptor A3 [11]): 8.07 |
| COc1ccc(-n2nc3c(NC(C)=O)nc4c(N)cccc4n3c2=O)cc1 | – | – | – | 6.44 | 8.26 | pKi (Adenosine receptor A1 [8]): 5.57; pKi (Adenosine receptor A2a [12]): 5.96 |
| O=C(Nc1nc2ccccc2n2c(=O)n(-c3ccccc3)nc12)c1ccccc1 | – | – | – | – | – | pKi (Adenosine receptor A1 [8]): 7.06; pKi (Adenosine receptor A2a [12]): 7.05 |
| O=C(Nc1nc2c([N+](=O)[O-])cccc2n2c(=O)n(-c3ccccc3)nc12)C(c1ccccc1)c1ccccc1 | 49 | 29.5 | 12 | 8.41 | 7.83 | – |
| COc1ccc(-n2nc3c(NC(C)=O)nc4ccccc4n3c2=O)cc1 | 6 | – | 34 | 6.61 | 7.45 | – |
| O=C(c1ccccc1)N(C(=O)c1ccccc1)c1nc2c([N+](=O)[O-])cccc2n2c(=O)n(-c3ccccc3)nc12 | – | 0 | – | – | – | inhibition [9]: 27%; inhibition [6]: 39% |
| COc1ccc(-n2nc3c(NC(=O)c4ccccc4)nc4c([N+](=O)[O-])cccc4n3c2=O)cc1 | – | 15 | – | – | 6.66 | inhibition [6]: 35% |
| COc1ccc(-n2nc3c(NC(=O)C(c4ccccc4)c4ccccc4)nc4c(N)cccc4n3c2=O)cc1 | 31 | 0 | 0 | 7.11 | 8.59 | – |
| Nc1cccc2c1nc(NC(=O)c1ccccc1)c1nn(-c3ccccc3)c(=O)n12 | – | 27.8 | – | 7.38 | 7.66 | pKi (Adenosine receptor A1 [8]): 7.01; pKi (Adenosine receptor A2a [12]): 5.31 |

Continued, in another order:

| inhibition (Adenosine receptor A2a [1]) [%] | inhibition [2] [%] | inhibition [3] [%] | pKi (Adenosine receptor A1 [4]) | pKi (Adenosine receptor A3 [5]) | SMILES | other results |
| --- | --- | --- | --- | --- | --- | --- |
| 2 | 0 | 11 | 6.59 | – | COc1ccc(-n2nc3c(NC(=O)C(c4ccccc4)c4ccccc4)nc4c([N+](=O)[O-])cccc4n3c2=O)cc1 | – |
| – | – | 32 | 9.00 | 7.32 | CC(=O)Nc1nc2c(N)cccc2n2c(=O)n(-c3ccccc3)nc12 | – |
| – | – | – | – | 6.46 | COc1ccc(-n2nc3c(N(C(=O)c4ccccc4)C(=O)c4ccccc4)nc4c([N+](=O)[O-])cccc4n3c2=O)cc1 | inhibition [6]: 20% |
| 58 | – | – | 7.99 | 9.09 | O=C(Nc1nc2ccccc2n2c(=O)n(-c3ccccc3)nc12)C(c1ccccc1)c1ccccc1 | pKi [7]: 5.94; pKi (Adenosine receptor A1 [8]): 7.73 |
| – | 36 | – | 8.22 | – | CC(=O)Nc1nc2c([N+](=O)[O-])cccc2n2c(=O)n(-c3ccccc3)nc12 | inhibition [9]: 18% |
| – | 26 | – | – | 7.00 | O=C(Nc1nc2ccccc2n2c(=O)n(-c3ccc([N+](=O)[O-])cc3)nc12)c1ccccc1 | inhibition [6]: 55% |
| 25 | 0 | 15 | – | 7.66 | O=C(Nc1nc2c([N+](=O)[O-])cccc2n2c(=O)n(-c3ccccc3)nc12)c1ccccc1 | inhibition [6]: 32% |
| – | 23 | 37 | 6.00 | 8.54 | COc1ccc(-n2nc3c(NC(=O)c4ccccc4)nc4ccccc4n3c2=O)cc1 | pKi (Adenosine receptor A2a [12]): 5.45 |
| – | 7 | – | – | – | COc1ccc(-n2nc3c(NC(C)=O)nc4c([N+](=O)[O-])cccc4n3c2=O)cc1 | inhibition [9]: 36%; inhibition [6]: 0% |
| – | 36 | – | 7.10 | 5.91 | Nc1cccc2c1nc(N(C(=O)c1ccccc1)C(=O)c1ccccc1)c1nn(-c3ccccc3)c(=O)n12 | – |
| 22 | – | – | – | – | CC(=O)Nc1nc2ccccc2n2c(=O)n(-c3ccccc3)nc12 | pKi (Adenosine receptor A1 [8]): 5.70 |
| – | 12 | 2.5 | 8.80 | 8.06 | Nc1cccc2c1nc(NC(=O)C(c1ccccc1)c1ccccc1)c1nn(-c3ccccc3)c(=O)n12 | pKi (Adenosine receptor A2a [12]): 6.20 |
| – | 0 | – | – | – | O=C(Nc1nc2ccccc2n2c(=O)n(-c3ccc([N+](=O)[O-])cc3)nc12)C(c1ccccc1)c1ccccc1 | inhibition [9]: 13%; inhibition [6]: 30% |
| 43 | – | 1 | 7.52 | 8.28 | O=C(c1ccccc1)N(C(=O)c1ccccc1)c1nc2ccccc2n2c(=O)n(-c3ccccc3)nc12 | inhibition [10]: 15%; pIC50 (Adenosine receptor A2b): < 6.00; pIC50 (Adenosine receptor A3 [11]): 7.55 |
